Data: patent publication US6551615B1, “Dexibuprofen-containing soft gelatin capsules and process for preparing the same” (M/s. Strides Arcolab Limited, priority 2001, dated 2003)

What was measured:
[1] = cited from earlier work
[2] = Compatibility of dexibuprofen with glycerin plasticizer; format: physicochemical; conditions: in some instances
From the text: In general, gelatin capsule formulations for soft gelatin capsules comprise raw gelatin and one or more plasticizers added to adjust the hardness of the capsule. Typical plasticizers include glycerin, sorbitol and Anidrisorb 85/70. A preferred plasticizer is Anidrisorb 85/70, an aqueous solution of D-sorbitol and sorbitans. […] One preferred gelatin formulation for the soft gelatin capsules used in accordance with preferred embodiments includes gelatin in the range of about 40% to 48% and a plasticizer ranging in amount from about 20% to 35%. Another preferred plasticizer is sorbitol BP, a non-crystallizing sorbitol solution. When either a 70%, non-crystallizing sorbitol solution or Anidrisorb 85/70 are used alone, the amount of plasticizer used preferaby ranges from about 25% to 35%. Capsule formulations can also include other suitable additives, for example coloring agents, which impart specific characteristics such as the look and feel of the capsule. FD&C dyes and D & C dyes are examples of pharmaceutically acceptable coloring agents that may be used in preferred embodiments.

What does the source list for `CC(C)Cc1ccc([C@H](C)C(=O)O)cc1` [Dexibuprofen, (S)-(+)-2-(4-isobutylphenyl)propionic acid]?
Solubility in acetone ([1]; acetone): freely soluble; Solubility in aqueous solutions of alkali hydroxides and carbonates ([1]; aqueous solutions of alkali hydroxides and carbonates): soluble; Solubility in methanol ([1]; methanol): freely soluble; Solubility in methylene chloride ([1]; methylene chloride): freely soluble; Solubility in most organic solvents ([1]; most organic solvents): readily soluble; Solubility in water ([1]; water): practically insoluble; Reaction with glycerin (plasticizer of the capsule shell) [2]: forming unwanted glycerol esters of dexibuprofen
